In patent US20230276835A1, “SAVORY TASTE ENHANCEMENT VIA TRANSMEMBRANE REGION BINDING” (Firmenich Incorporated, priority 2020, published 2023):

Assays:
[1] = Sensory testing: paired choice of greater umami taste; assay type: in vivo, human; settings: 16 mM MSG solution vs 4 ppm S807 solution, 32 selections; for number of selections favoring the solution as having greater umami taste: 16 panelists, 2 reps
From the text: Of the 32 selections, 19 favored the MSG solution and 13 favored the S807 solution.

[2] = molecular target: T1, T1R1/T1R3 (Homo sapiens, UniProt Q7RTX1); test: T1R1/T1R3 assay (cells expressing hT1R1 in the presence of hT1R3); assay type: cell-based
T1 construct: expressed in transfected cells
T1 sequence (Q7RTX1 21-841): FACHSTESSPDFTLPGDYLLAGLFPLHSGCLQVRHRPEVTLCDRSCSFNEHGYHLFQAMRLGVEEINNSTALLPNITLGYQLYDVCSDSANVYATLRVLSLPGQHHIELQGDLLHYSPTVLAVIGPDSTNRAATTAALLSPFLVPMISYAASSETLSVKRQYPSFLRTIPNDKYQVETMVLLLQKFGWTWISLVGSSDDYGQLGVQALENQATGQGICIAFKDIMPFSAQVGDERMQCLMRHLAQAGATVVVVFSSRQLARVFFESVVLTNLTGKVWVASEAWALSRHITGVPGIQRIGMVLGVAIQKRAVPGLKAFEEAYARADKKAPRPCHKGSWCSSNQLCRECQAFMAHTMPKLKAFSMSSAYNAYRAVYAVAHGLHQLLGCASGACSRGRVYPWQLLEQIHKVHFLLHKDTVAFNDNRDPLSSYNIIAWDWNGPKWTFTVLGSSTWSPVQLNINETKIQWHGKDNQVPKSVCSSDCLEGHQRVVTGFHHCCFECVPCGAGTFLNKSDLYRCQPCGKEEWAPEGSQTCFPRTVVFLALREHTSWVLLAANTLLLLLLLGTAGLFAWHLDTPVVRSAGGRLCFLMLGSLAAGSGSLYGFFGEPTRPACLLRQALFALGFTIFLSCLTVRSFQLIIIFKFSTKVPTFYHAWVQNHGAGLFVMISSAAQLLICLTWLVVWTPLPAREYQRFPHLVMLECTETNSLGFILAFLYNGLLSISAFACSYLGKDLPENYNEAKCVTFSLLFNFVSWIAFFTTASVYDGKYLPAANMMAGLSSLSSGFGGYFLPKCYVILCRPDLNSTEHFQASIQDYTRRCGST
T1 sequence (Q7RTX0 21-852 C757R partner): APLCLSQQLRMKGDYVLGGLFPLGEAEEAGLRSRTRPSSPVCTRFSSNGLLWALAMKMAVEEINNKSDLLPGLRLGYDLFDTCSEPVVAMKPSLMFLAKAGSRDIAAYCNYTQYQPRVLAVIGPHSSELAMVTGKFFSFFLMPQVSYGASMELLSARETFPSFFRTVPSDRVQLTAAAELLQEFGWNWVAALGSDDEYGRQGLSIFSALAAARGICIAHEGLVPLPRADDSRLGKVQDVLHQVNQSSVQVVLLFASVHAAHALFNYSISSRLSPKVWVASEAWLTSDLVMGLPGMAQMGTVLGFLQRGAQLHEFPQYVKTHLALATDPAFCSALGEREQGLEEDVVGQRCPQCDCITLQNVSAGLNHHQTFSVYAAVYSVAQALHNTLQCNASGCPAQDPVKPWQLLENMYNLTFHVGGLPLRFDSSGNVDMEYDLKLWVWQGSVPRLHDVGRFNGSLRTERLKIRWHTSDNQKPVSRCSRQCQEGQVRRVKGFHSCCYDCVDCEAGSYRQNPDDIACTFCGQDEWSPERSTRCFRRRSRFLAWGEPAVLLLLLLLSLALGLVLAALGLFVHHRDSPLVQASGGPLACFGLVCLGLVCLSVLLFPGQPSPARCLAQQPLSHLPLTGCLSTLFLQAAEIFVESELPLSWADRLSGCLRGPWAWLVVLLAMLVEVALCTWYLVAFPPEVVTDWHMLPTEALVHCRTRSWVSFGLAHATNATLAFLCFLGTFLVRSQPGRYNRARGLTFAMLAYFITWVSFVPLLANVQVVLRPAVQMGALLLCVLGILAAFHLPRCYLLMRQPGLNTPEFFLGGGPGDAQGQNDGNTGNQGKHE
From the text: To implement the identification of hT1R1-TMD modulators, cells transiently or stably expressing hT1R1 (T1R1) in the presence of hT1R3 (T1R3) are stimulated with library compounds. Similarly, the same compounds are screened in a GTPγS binding assay utilizing membranes expressing transmembrane domain (TMD) of hT1R1 as described in Zhang et al., Proc. Nat'l Acad. Sci., vol. 105, pp. 20930-20934 (2008). Compounds active exclusively active in the two assays are then prioritized and evaluated in sensory for the detection of an umami note on their own and synergy in the presence of MSG or MSG+IMP.
The compound N-(heptan-4-yl)-benzo[d][1,3]dioxole-5-carboxamide (S807) was used as a test compound in a T1R1/T1R3 assay, both alone and in the presence of monosodium glutamate (MSG).
In a similar way, the T1R1/T1R3 assay was used to measure the activity of monosodium glutamate (MSG), inosine 5′monophosphate (IMP), S807, MSG+IMP, 5807+MSG, 5807+IMP, and 5807+MSG+IMP.

| agonist activity on T1R1/T1R3 ([2]; S807 alone, FIG. 2) | enhancement of the MSG effect on T1R1/T1R3 ([2]; in the presence of MSG, FIG. 2) | effect in combination with MSG (percent activity, FIG. 3) ([2]; with MSG) | effect in combination with MSG and IMP (percent activity, FIG. 3) ([2]; with the combination of MSG and IMP) | Structure (SMILES) | number of selections favoring the solution as having greater umami taste [1] | preference for MSG versus S807 (umami taste) [1] |
| --- | --- | --- | --- | --- | --- | --- |
|  |  |  |  | N[C@@H](CCC(=O)O)C(=O)[O-].[Na+] [MSG, monosodium glutamate, reference compound] | 19 |  |
| agonist activity | enhancement properties on the MSG effect | synergistic effect | synergistic effect | CCCC(CCC)NC(=O)c1ccc2c(c1)OCO2 [S807, N-(heptan-4-yl)-benzo[d][1,3]dioxole-5-carboxamide] | 13 | no statistically significant preference |
